Assay results published in patent publication US20230085307A1, “PYRIDAZINONE COMPOUND AND HERBICIDE” (NISSAN CHEMICAL CORPORATION, priority 2019, published 2023).

Tests used:
[1] = tested on: wild oat; experiment: Test Example 4: herbicidal effect by soil treatment (Table 19, symbol I); assay type: in vivo, wild oat (Avena fatua); conditions: amount of applied herbicide 320 g/ha
Summary of the method: (§1)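 Seeds were sown in sterilized diluvial soil and covered with about 1.5 cm of soil. An emulsion formulation diluted with water to a predetermined herbicide amount was sprayed evenly onto the soil surface. Plants grew in a greenhouse at 25° C. to 30° C., and the effect was scored three weeks after application using criteria from an earlier test.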

[2] = tested on: velvetleaf; experiment: Test Example 4: herbicidal effect by soil treatment (Table 19, symbol M); assay type: in vivo, velvetleaf (Abutilon theophrasti); conditions: amount of applied herbicide 320 g/ha
Summary of the method: as §1

[3] = tested on: velvetleaf; experiment: Test Example 5: herbicidal effect by foliage application, plastic box (Table 20, symbol M); assay type: in vivo, velvetleaf (Abutilon theophrasti); conditions: foliage application, 320 g/ha, three weeks after application
Summary of the method: (§2)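 Plants sown in sterilized diluvial soil and grown 14 days in a greenhouse at 25° C to 30° C, then sprayed on the foliage with the compound's emulsion diluted in water to a predetermined herbicide amount. Injury to weeds and crops scored three weeks after application on a visual rating scale.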

[4] = tested on: Italian ryegrass; experiment: Test Example 5: herbicidal effect by foliage application, plastic box (Table 20, symbol K); assay type: in vivo, Italian ryegrass (Lolium multiflorum); conditions: foliage application, 320 g/ha, three weeks after application
Summary of the method: as §2

[5] = tested on: Japanese bulrush; experiment: Test Example 2: herbicidal activity, application during weed generation under submerged conditions (Table 17, symbol B); assay type: in vivo, Japanese bulrush (Schoenoplectus juncoides); conditions: AAH 320 g/ha; application during weed generation, submerged conditions
Summary of the method: (§3)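 Mixed weed seedlings in alluvial soil under a 4 cm water layer, greenhouse-grown at 25–30° C. Compound given as a diluted emulsion into the floodwater at the 1–2 leaf stage; response graded after three weeks.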

[6] = tested on: green foxtail; experiment: Test Example 5: herbicidal effect by foliage application, plastic box (Table 20, symbol G); assay type: in vivo, green foxtail (Setaria viridis); conditions: foliage application, 320 g/ha, three weeks after application
Summary of the method: as §2

[7] = tested on: blackgrass; experiment: Test Example 5: herbicidal effect by foliage application, plastic box (Table 20, symbol J); assay type: in vivo, blackgrass (Alopecurus myosuroides); conditions: foliage application, 320 g/ha, three weeks after application
Summary of the method: as §2

[8] = tested on: wild oat; experiment: Test Example 5: herbicidal effect by foliage application, plastic box (Table 20, symbol I); assay type: in vivo, wild oat (Avena fatua); conditions: foliage application, 320 g/ha, three weeks after application
Summary of the method: as §2

[9] = tested on: green foxtail; experiment: Test Example 4: herbicidal effect by soil treatment (Table 19, symbol G); assay type: in vivo, green foxtail (Setaria viridis); conditions: amount of applied herbicide 320 g/ha
Summary of the method: as §1

[10] = tested on: late watergrass; experiment: Test Example 1: herbicidal activity, application before weed generation under submerged conditions (Table 16, symbol A); assay type: in vivo, late watergrass (Echinochloa oryzicola); conditions: amount of applied herbicide 320 g/ha
Summary of the method: (§4)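 Submerged Wagner pots (alluvial soil, 4 cm water) sown with weed seeds and planted with 2.5-leaf rice seedlings; emulsifiable concentrate diluted in water applied to water surface on sowing day. Held in greenhouse at 25-30 °C; injury scored 0-5 by herbicidal rate after three weeks.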

[11] = tested on: windgrass; experiment: Test Example 5: herbicidal effect by foliage application, plastic box (Table 20, symbol L); assay type: in vivo, windgrass (Apera spica-venti); conditions: foliage application, 320 g/ha, three weeks after application
Summary of the method: as §2

[12] = tested on: oval-leafed pondweed; experiment: Test Example 2: herbicidal activity, application during weed generation under submerged conditions (Table 17, symbol C); assay type: in vivo, oval-leafed pondweed (Monochoria vaginalis); conditions: AAH 320 g/ha; application during weed generation, submerged conditions
Summary of the method: as §3

[13] = tested on: Italian ryegrass; experiment: Test Example 4: herbicidal effect by soil treatment (Table 19, symbol K); assay type: in vivo, Italian ryegrass (Lolium multiflorum); conditions: amount of applied herbicide 320 g/ha
Summary of the method: as §1

[14] = tested on: southern crabgrass; experiment: Test Example 5: herbicidal effect by foliage application, plastic box (Table 20, symbol F); assay type: in vivo, southern crabgrass (Digitaria ciliaris); conditions: foliage application, 320 g/ha, three weeks after application
Summary of the method: as §2

[15] = tested on: Japanese bulrush; experiment: Test Example 1: herbicidal activity, application before weed generation under submerged conditions (Table 16, symbol B); assay type: in vivo, Japanese bulrush (Schoenoplectus juncoides); conditions: amount of applied herbicide 320 g/ha
Summary of the method: as §4

[16] = tested on: barnyard grass; experiment: Test Example 5: herbicidal effect by foliage application, plastic box (Table 20, symbol H); assay type: in vivo, barnyard grass (Echinochloa crus-galli); conditions: foliage application, 320 g/ha, three weeks after application
Summary of the method: as §2

[17] = tested on: redroot pigweed; experiment: Test Example 4: herbicidal effect by soil treatment (Table 19, symbol N); assay type: in vivo, redroot pigweed (Amaranthus retroflexus); conditions: amount of applied herbicide 320 g/ha
Summary of the method: as §1

[18] = tested on: lambsquarters; experiment: Test Example 4: herbicidal effect by soil treatment (Table 19, symbol O); assay type: in vivo, lambsquarters (Chenopodium album); conditions: amount of applied herbicide 320 g/ha
Summary of the method: as §1

[19] = tested on: persian speedwell; experiment: Test Example 4: herbicidal effect by soil treatment (Table 19, symbol R); assay type: in vivo, Persian speedwell (Veronica persica); conditions: amount of applied herbicide 320 g/ha
Summary of the method: as §1

[20] = tested on: blackgrass; experiment: Test Example 4: herbicidal effect by soil treatment (Table 19, symbol J); assay type: in vivo, blackgrass (Alopecurus myosuroides); conditions: amount of applied herbicide 320 g/ha
Summary of the method: as §1

Row | Structure (SMILES) | I: wild oat, herbicidal effect grade [1] | M: velvetleaf, herbicidal effect grade [2] | herbicidal effect on velvetleaf (M) [3] | herbicidal effect on Italian ryegrass (K) [4] | herbicidal effect rating, B: Japanese bulrush [5] | herbicidal effect on green foxtail (G) [6] | herbicidal effect on blackgrass (J) [7] | herbicidal effect on wild oat (I) [8] | G: green foxtail, herbicidal effect grade [9] | Herbicidal effect, A: late watergrass [10] | herbicidal effect on windgrass (L) [11] | herbicidal effect rating, C: oval-leafed pondweed [12] | K: Italian ryegrass, herbicidal effect grade [13] | herbicidal effect on southern crabgrass (F) [14] | Herbicidal effect, B: Japanese bulrush [15] | herbicidal effect on barnyard grass (H) [16] | N: redroot pigweed, herbicidal effect grade [17] | O: lambsquarters, herbicidal effect grade [18] | R: persian speedwell, herbicidal effect grade [19] | J: blackgrass, herbicidal effect grade [20]
1 | COCCOc1ccc(-c2oc3ccccc3c2-c2c(O)c(C)nn(C)c2=O)cc1 [Compound No. 8-007, 5-hydroxy-4-(2-(4-(2-methoxyethoxy)phenyl)benzofuran-3-yl)-2,6-dimethylpyridazin-3-(2H)-one] | 0 (Herbicidal rate of 5% or less (almost no effect)) | 3 (Herbicidal rate of 40% or more and less than 70%) | 5 (Herbicidal rate of 90% or more (almost completely withered)) | 5 (Herbicidal rate of 90% or more (almost completely withered)) | 4 (Herbicidal rate of 70% or more and less than 90%) | 5 (Herbicidal rate of 90% or more (almost completely withered)) | 5 (Herbicidal rate of 90% or more (almost completely withered)) | 1 (Herbicidal rate of 5% or more and less than 20%) | 5 (Herbicidal rate of 90% or more (almost completely withered)) | 5 (Herbicidal rate of 90% or more (almost completely withered)) | 0 (Herbicidal rate of 5% or less (almost no effect)) | 3 (Herbicidal rate of 40% or more and less than 70%) | 4 (Herbicidal rate of 70% or more and less than 90%) | 5 (Herbicidal rate of 90% or more (almost completely withered)) | 5 (Herbicidal rate of 90% or more (almost completely withered)) | 5 (Herbicidal rate of 90% or more (almost completely withered)) | 5 (Herbicidal rate of 90% or more (almost completely withered)) | 4 (Herbicidal rate of 70% or more and less than 90%) | 2 (Herbicidal rate of 20% or more and less than 40%) | 3 (Herbicidal rate of 40% or more and less than 70%)
2 | CCCC(=O)Oc1c(C)nn(C)c(=O)c1-c1c(-c2ccc(F)cc2)sc2cc(C)c(C)cc12 [5-089] | 0 (Herbicidal rate of 5% or less (almost no effect)) | 0 (Herbicidal rate of 5% or less (almost no effect)) | 0 (Herbicidal rate of 5% or less (almost no effect)) | 0 (Herbicidal rate of 5% or less (almost no effect)) | 0 (Herbicidal rate of 5% or less (almost no effect)) | 0 (Herbicidal rate of 5% or less (almost no effect)) | 0 (Herbicidal rate of 5% or less (almost no effect)) | 0 (Herbicidal rate of 5% or less (almost no effect)) | 0 (Herbicidal rate of 5% or less (almost no effect)) | 3 (Herbicidal rate of 40% or more and less than 70%) | 0 (Herbicidal rate of 5% or less (almost no effect)) | 0 (Herbicidal rate of 5% or less (almost no effect)) | 0 (Herbicidal rate of 5% or less (almost no effect)) | 0 (Herbicidal rate of 5% or less (almost no effect)) | 0 (Herbicidal rate of 5% or less (almost no effect)) | 0 (Herbicidal rate of 5% or less (almost no effect)) | 0 (Herbicidal rate of 5% or less (almost no effect)) | 0 (Herbicidal rate of 5% or less (almost no effect)) | 0 (Herbicidal rate of 5% or less (almost no effect)) | 0 (Herbicidal rate of 5% or less (almost no effect))
3 | C=CCOc1ccc(-c2oc3ccccc3c2-c2c(O)c(C)nn(C)c2=O)cc1 [8-004] | 0 (Herbicidal rate of 5% or less (almost no effect)) | 2 (Herbicidal rate of 20% or more and less than 40%) | 2 (Herbicidal rate of 20% or more and less than 40%) | 4 (Herbicidal rate of 70% or more and less than 90%) | 3 (Herbicidal rate of 40% or more and less than 70%) | 3 (Herbicidal rate of 40% or more and less than 70%) | 3 (Herbicidal rate of 40% or more and less than 70%) | 3 (Herbicidal rate of 40% or more and less than 70%) | 3 (Herbicidal rate of 40% or more and less than 70%) | 5 (Herbicidal rate of 90% or more (almost completely withered)) | 4 (Herbicidal rate of 70% or more and less than 90%) | 3 (Herbicidal rate of 40% or more and less than 70%) | 4 (Herbicidal rate of 70% or more and less than 90%) | 4 (Herbicidal rate of 70% or more and less than 90%) | 5 (Herbicidal rate of 90% or more (almost completely withered)) | 3 (Herbicidal rate of 40% or more and less than 70%) | 5 (Herbicidal rate of 90% or more (almost completely withered)) | 2 (Herbicidal rate of 20% or more and less than 40%) | 3 (Herbicidal rate of 40% or more and less than 70%) | 0 (Herbicidal rate of 5% or less (almost no effect))
4 | Cc1ccc2oc(-c3ccc4c(c3)OCCO4)c(-c3c(O)c(C)nn(C)c3=O)c2c1 [9-012] | 0 (Herbicidal rate of 5% or less (almost no effect)) | 2 (Herbicidal rate of 20% or more and less than 40%) | 5 (Herbicidal rate of 90% or more (almost completely withered)) | 5 (Herbicidal rate of 90% or more (almost completely withered)) | 4 (Herbicidal rate of 70% or more and less than 90%) | 2 (Herbicidal rate of 20% or more and less than 40%) | 0 (Herbicidal rate of 5% or less (almost no effect)) | 0 (Herbicidal rate of 5% or less (almost no effect)) | 3 (Herbicidal rate of 40% or more and less than 70%) | 4 (Herbicidal rate of 70% or more and less than 90%) | 2 (Herbicidal rate of 20% or more and less than 40%) | 5 (Herbicidal rate of 90% or more (almost completely withered)) | 4 (Herbicidal rate of 70% or more and less than 90%) | 3 (Herbicidal rate of 40% or more and less than 70%) | 5 (Herbicidal rate of 90% or more (almost completely withered)) | 3 (Herbicidal rate of 40% or more and less than 70%) | 3 (Herbicidal rate of 40% or more and less than 70%) | 3 (Herbicidal rate of 40% or more and less than 70%) | 4 (Herbicidal rate of 70% or more and less than 90%) | 0 (Herbicidal rate of 5% or less (almost no effect))
